Experimental data: patent publication US20240390499A1, “METHOD” (OSLO UNIVERSITETSSYKEHUS HF, priority 2021, published 2024)

Tests used:
LN18 cells = assay: MTT cell viability assay, DZ325 + cercosporin (FIG. 1); type: cell-based, human
Description: FIG. 1—Cell viability of LN18 cells: Compound DZ325+cercosporin.
(§1) The efficacy of the chemiluminescent compounds DZ325 and EK297 was tested in cell cultures of human glioblastoma multiforme cell lines (U87, T98G, M059K and LN-18).
(§2) The cells were inoculated in 96-well plates and left to attach overnight at 37° C. in a 5% CO2, humidified atmosphere. Subsequently the cells were incubated with (i) the photosensitizer (cercosporin) or the photosensitizer precursor (5-ALA, for the generation of the photosensitizer PpIX); and (ii) the compound at the appropriate concentration. In the case of 5-ALA, its introduction to the cell culture preceded that of the chemiluminescent compound by 1 hour to ensure adequate PpIX production. In the case of cercosporin, it was administered at the same time as the chemiluminescent compound. […]
(§3) 24 hours from the introduction of the chemiluminescent compounds to the cells, the cell media was removed and replaced with 100 μL of media containing 0.5 mg/mL thiazolyl blue salts for the performance of a standard MTT viability assay. […] The endpoint absorbance measurement was made at 561 nm. […] The experimental cell viability of the combined treatment (photosensitizer+chemiluminescent compound) was compared to the theoretical additive treatment of the photosensitizer+chemiluminescent compound which was calculated as follows: […]

M059K cells = assay: MTT cell viability assay, DZ325 + cercosporin (FIG. 2); type: cell-based, human
Description: FIG. 2—Cell viability of M059K cells: Compound DZ325+cercosporin.
as §1, §2, §3

[1] = tested on: human glioblastoma multiforme cell lines (U87, T98G, M059K and LN-18); assay: MTT cell viability assay, chemiluminescent compound plus photosensitizer (FIG. 3); type: cell-based
Description: as §1
The cells were inoculated in 96-well plates and left to attach overnight at 37° C. in a 5% CO2, humidified atmosphere. Subsequently the cells were incubated with (i) the photosensitizer (cercosporin) or the photosensitizer precursor (5-ALA, for the generation of the photosensitizer PpIX); and (ii) the compound at the appropriate concentration. In the case of 5-ALA, its introduction to the cell culture preceded that of the chemiluminescent compound by 1 hour to ensure adequate PpIX production. In the case of cercosporin, it was administered at the same time as the chemiluminescent compound.
The chemiluminescent compounds were prepared as 50 mM stock solutions in DMSO (or 1-methyl-2-pyrrolidone) and diluted in cell media to their final concentrations. Cercosporin was prepared as a 4 mM solution in DMSO and appropriately diluted in cell media. 5-ALA was made to its final concentration in Optimem. In the case of the luminol-based compound (DZ325), Cu was in some cases added to the cell media in the form of CuSO4 at a final concentration of 100 μM.
24 hours from the introduction of the chemiluminescent compounds to the cells, the cell media was removed and replaced with 100 μL of media containing 0.5 mg/mL thiazolyl blue salts for the performance of a standard MTT viability assay. The MTT containing medium was left to incubate for 1 to 3 hours and then removed and replaced with 100 μL DMSO. The endpoint absorbance measurement was made at 561 nm. Media only controls were used as 100% cell viability controls. The experimental cell viability of the combined treatment (photosensitizer+chemiluminescent compound) was compared to the theoretical additive treatment of the photosensitizer+chemiluminescent compound which was calculated as follows:
In each figure, one example of synergy is highlighted. […] Calculated cell viability is determined according to the following equation (in which “PS”=photosensitizer; “CL”=chemiluminescent agent): […]

Question: For `Cc1ccc(S(=O)(=O)NCCCNc2cccc3c(=O)[nH][nH]c(=O)c23)cc1` [DZ325, N-(3-((1,4-dioxo-1,2,3,4-tetrahydrophthalazin-5-yl)amino)propyl)-4-methylbenzenesulfonamide], which “synergy between chemiluminescent compound and photosensitizer” value (LN18 cells) is on record?
Answer: synergy

Question: What about the “synergy between chemiluminescent compound and photosensitizer” value (M059K cells) of the same molecule?
Answer: synergy

Question: `COc1c(CC(C)O)c2c3c(CC(C)O)c(OC)c(=O)c4c(O)cc5c(c6c(cc(O)c(c1=O)c62)OCO5)c43` (stereo not shown) [cercosporin, reference compound] was tested. Which viability at 3 µM ([1]; Homo sapiens, 24 h, read-out: cell viability) did it give?
Answer: 80%

Question: What does the source list for `Cc1ccc(S(=O)(=O)N2CCN(C(=O)c3cc(Br)c(OC(=O)c4c5ccccc5[n+](C)c5ccccc45)c(Br)c3)CC2)cc1.O=S(=O)([O-])C(F)(F)F` [EK297, 9-((2,6-dibromo-4-(4-tosylpiperazine-1-carbonyl)phenoxy)carbonyl)-10-methylacridin-10-ium trifluoromethanesulfonate]?
Answer: experimental cell viability of combined treatment ([1]; 3 μM cercosporin+400 μM EK297, MTT 24 hours, FIG. 3): 21.5%; calculated cell viability (theoretical additive) ([1]; 3 μM cercosporin+400 μM EK297, calculated from single-agent viabilities): 59.5%; synergy between chemiluminescent compound and photosensitizer ([1]; EK297 with cercosporin, experimental vs calculated viability): cytotoxic synergy; viability at 400 µM ([1]; Homo sapiens, 400 μM EK297 alone, MTT 24 hours, FIG. 3, cell line not stated, read-out: cell viability (printed as 'toxicity')): 74.5%
